# Reference: paper PMC6271887, “Antiparasitic Activity of Natural and Semi-Synthetic Tirucallane Triterpenoids from Schinus terebinthifolius (Anacardiaceae): Structure/Activity Relationships” (Molecules, 2014)
# Where two headings read alike, the source gives them in different places.
# Assays:
# [1] = system: L. infantum promastigotes; parameters: method as in PMID 24374794; details: CI95% not given; cited from earlier work
# [2] = Cytotoxicity against mammalian cells (MTT); format: cell-based; details: mouse
# Description: (§1) Peritoneal macrophages were collected from the peritoneal cavity of female BALB/c mice by washing with RPMI-1640 without phenol red, supplemented with 10% FBS. NCTC (clone 929) cells were maintained in RPMI-1640 (without phenol red and supplemented with 10% FBS) at 37 °C in a humidified atmosphere containing 5% CO2 [31]. The 50% cytotoxic concentration (CC50) was determined in NCTC clone 929 cells. NCTC cells were seeded at 6 × 10^4 cells/well in 96-well microplates at 37 °C in a 5% CO2. The mammalian cells were incubated with tested compounds to the highest concentration of 200 μg/mL for 48 h at 37 °C, using miltefosine as standard drug. The viability of the cells was determined by MTT assay at 570 nm. The selectivity index (SI) was determined considering the following equation: CC50 NCTC cells/IC50 parasites.
# [3] = system: L. infantum intracellular amastigotes; assay: Activity against L. infantum intracellular amastigotes in peritoneal macrophages (Giemsa, microscopy); format: cell-based, Leishmania (L.) infantum; details: for SI AMA: selectivity index amastigotes: CC50 mammalian cells/IC50 Leishmania amastigotes; for L. infantum (Amastigotes) Experimental: class, without activity at 100 µg/mL = inactive; for IC50: Leishmania infantum, Peritoneal macrophage, intracellular, peritoneal macrophages, 120 h, 100 to 0.78 μg/mL, NA: not active, read-out: IC50 CI95% L. infantum Amastigotes
# Description: (§2) Isolated promastigotes of L. (L.) infantum (MHOM/BR/1972/LD) were maintained in M-199 medium supplemented with 10% fetal bovine serum (FBS) and 0.25% hemin at 24 °C. L. infantum was maintained in golden hamsters up to 60–70 days post-infection. Amastigotes were harvested from spleens of infected hamsters by differential centrifugation. T. cruzi trypomastigotes (Y strain) were maintained in LLC-MK2 (ATCC CCL 7) cells using RPMI-1640 medium supplemented with 2% FBS at 37 °C 5% CO2-humidified incubator [21].
# Peritoneal macrophages were collected from the peritoneal cavity of female BALB/c mice by washing with RPMI-1640 without phenol red, supplemented with 10% FBS. NCTC (clone 929) cells were maintained in RPMI-1640 (without phenol red and supplemented with 10% FBS) at 37 °C in a humidified atmosphere containing 5% CO2 [31].
# Peritoneal macrophages were obtained as described previously and L. infantum amastigotes were obtained from spleens of infected hamsters by differential centrifugation. Peritoneal macrophages were seeded at 1 × 10^5 cells per well in Nunc™ 16-well slide chambers (Aldrich, St. Louis, MO, USA) for 24 h at 37 °C in a 5% CO2-humidified incubator. Amastigotes were added to macrophages at 10:1 ratio (amastigotes:macrophage) and incubated for 24 h. Non-internalized parasites were removed by washing twice with medium and the cells were then incubated with compounds in a range concentration of 100 to 0.78 μg/mL for 120 h at 37 °C in 5% CO2, using miltefosine as standard drug. At the end of the assay, the cells were fixed in methanol, stained with Giemsa and observed under a light microscope to determine the number of infected macrophages out of 400 cells.
# [4] = system: L. infantum intracellular amastigotes; parameters: method as in PMID 24374794; details: CI95% not given; cited from earlier work
# [5] = system: extracellular forms of the parasite; parameters: method as in PMID 10603400; details: cited from earlier work
# [6] = system: T. cruzi trypomastigotes (Y strain); assay: Activity against Trypanosoma cruzi trypomastigotes (MTT); format: cell-based; details: for SI TRY: selectivity index trypomastigotes: CC50 mammalian cells/IC50 trypomastigotes; for IC50: Trypanosoma cruzi, 37 °C, 100 to 0.78 μg/mL, NA: not active, read-out: IC50 CI95% T. cruzi Trypomastigotes; for T. cruzi (Trypomastigotes) Experimental: class, without activity at 100 µg/mL = inactive
# Description: as §2
# Compounds 1–3, 1a–c, 2a–d, 3a, and 3b were dissolved in DMSO and diluted in RPMI-1640 medium to determine the 50% inhibitory concentration (IC50) as described above for the antileishmanial assay. Free trypomastigotes obtained from LLC-MK2 cultures were counted in a Neubauer hemocytometer and seeded at 1 × 10^6/well in 96-well microplates. The tested compounds were incubated in a range concentration of 100 to 0.78 μg/mL for 24 h at 37 °C in a 5% CO2 humidified incubator, using benznidazole as standard drug. The viability of the trypomastigotes was verified by the MTT assay as described above.
# [7] = system: T. cruzi trypomastigotes (Y strain); parameters: method as in PMID 24340110; details: CI95% not given; cited from earlier work
# NCTC clone 929 cells = assay: Cytotoxicity against mammalian cells (MTT); format: cell-based
# Description: as §1
# [8] = system: L. infantum promastigotes; assay: Activity against L. infantum promastigotes (MTT, light microscopy); format: cell-based; details: Leishmania infantum; 48 h, 24 °C, 100 to 0.78 μg/mL; NA: not active; read-out: IC50 CI95% L. infantum Promastigotes
# Description: as §2
# To determine the 50% inhibitory concentration (IC50) against L. infantum promastigotes, compounds 1–3, 1a–c, 2a–d, 3a, and 3b were previously dissolved in dimethyl sulphoxide (DMSO) and diluted with M-199 medium in 96-well microplates. Promastigotes were counted in a Neubauer hemocytometer and seeded at 1 × 10^6/well with a final volume of 150 μL. The tested compounds were incubated in a range concentration of 100 to 0.78 μg/mL for 48 h at 24 °C. The viability of promastigotes was verified by motility and morphology using light microscopy and by the colorimetric MTT assay. Briefly, 3-[4,5-dimethylthiazol-2-yl]-2,5-diphenyltetrazolium bromide (MTT, 5 mg/mL) was dissolved in phosphate-buffered saline (PBS), sterilized through 0.22 µm membranes and added, 20 µL/well, for 4 h at 24 °C. […]
# [9] = NCTC clone 929 cells, NCTC clone 929, 48 h, highest concentration 200 μg/mL, read-out: CC50 CI95% NCTC
SMILES,SI AMA: selectivity index amastigotes [3],SI TRY: selectivity index trypomastigotes [6],IC50 ([6]; 24 h),CC50 at 48 h ([2]; CC50 CI95% NCTC),L. infantum (Amastigotes) Experimental [3],NCTC Experimental (NCTC clone 929 cells),also measured
"CCCCCCCCCCCCCCCCOP(=O)([O-])OCC[N+](C)(C)C [miltefosine, reference compound]",7,–,–,–,–,–,"IC50 L. infantum Promastigotes (standard drug) [1]: 6.87 µg/mL; CC50 at 48 h [2, 9]: 49.7 µg/mL; IC50 L. infantum Amastigotes (standard drug) [4]: 7.25 µg/mL"
CNC[C@H](O)[C@@H](O)[C@H](O)[C@H](O)CO.[O]=[Sb](=[O])[OH] [glucantime],–,–,–,–,–,–,effectiveness against the extracellular forms of the parasite [5]: no effectiveness
"CC(CCCC(C)[C@@H]1CC[C@]2(C)C3=CCC4C(C)(C)C(O)CC[C@]4(C)C3CC[C@@]12C)C(=O)O (stereo partly shown) [Compound 1b, 3ξ-Hydroxytirucall-7-en-27-oic acid]",–,4.3,17.6 µg/mL,76.4 µg/mL,I,–,–
O=C(Cn1ccnc1[N+](=O)[O-])NCc1ccccc1 [benznidazole],–,–,–,–,–,–,IC50 T. cruzi Trypomastigotes (standard drug) [7]: 115 µg/mL
"COC(=O)/C(C)=C\CCC(C)[C@@H]1CC[C@]2(C)C3=CCC4C(C)(C)[C@H](OC(C)=O)CC[C@]4(C)C3CC[C@@]12C (stereo partly drawn) [Compound 3b, Methyl 3α-acetoxytirucalla-7,24Z-dien-27-oate]",–,–,–,> 200 µg/mL,I,I,–
"CC(=O)OC1CC[C@]2(C)C3CC[C@@]4(C)[C@H](C(C)CC/C=C(\C)C(=O)O)CC[C@]4(C)C3=CCC2C1(C)C (stereo partly shown) [Compound 2b, 3ξ-Acetoxytirucalla-7,24E-dien-27-oic acid]",–,1.1,58.4 µg/mL,69.3 µg/mL,I,I,–
"C/C(=C\CCC(C)[C@@H]1CC[C@]2(C)C3=CCC4C(C)(C)C(O)CC[C@]4(C)C3CC[C@@]12C)C(=O)O (stereo partly shown) [Compound 2a, 3ξ-Hydroxytirucalla-7,24E-dien-27-oic acid]",1.0,3.2,29.6 µg/mL,95.5 µg/mL,–,I,IC50 [3]: 97.6 µg/mL
"CC(CCCC(C)[C@@H]1CC[C@]2(C)C3=CCC4C(C)(C)C(=O)CC[C@]4(C)C3CC[C@@]12C)C(=O)O (stereo partly shown) [Compound 1c, 3-Oxotirucall-7-en-27-oic acid]",–,–,–,> 200 µg/mL,I,I,T. cruzi (Trypomastigotes) Experimental [6]: I
"C/C(=C\CCC(C)[C@@H]1CC[C@]2(C)C3=CCC4C(C)(C)C(=O)CC[C@]4(C)C3CC[C@@]12C)C(=O)O (stereo partly shown) [Compound 2, 3-Oxotirucalla-7,24E-dien-27-oic acid]",1.5,6.1,15.8 µg/mL,–,–,–,"CC50 CI95% NCTC (NCTC clone 929 cells; NCTC clone 929, 48 h, highest concentration 200 μg/mL): 96.48 (77.38–120.30) μg/mL; NCTC Experimental (NCTC clone 929 cells; cytotoxicity class): I; CC50 at 48 h [2, 9]: 96 µg/mL; IC50 [3]: 64.9 µg/mL"
"CC(=O)OC1CC[C@]2(C)C3CC[C@@]4(C)[C@H](C(C)CCCC(C)C(=O)O)CC[C@]4(C)C3=CCC2C1(C)C (stereo partly shown) [Compound 2c, 3ξ-Acetoxytirucall-7-en-27-oic acid]",–,1.2,49.2 µg/mL,57.8 µg/mL,I,I,–
"COC(=O)/C(C)=C/CCC(C)[C@@H]1CC[C@]2(C)C3=CCC4C(C)(C)C(=O)CC[C@]4(C)C3CC[C@@]12C (stereo partly shown) [Compound 2d, Methyl 3-oxotirucalla-7,24E-dien-27-oate]",–,–,–,–,I,–,"T. cruzi (Trypomastigotes) Experimental [6]: I; NCTC Experimental (NCTC clone 929 cells; cytotoxicity class): I; CC50 at 48 h [2, 9]: > 200 µg/mL"
"C/C(=C/CCC(C)[C@@H]1CC[C@]2(C)C3=CCC4C(C)(C)C(O)CC[C@]4(C)C3CC[C@@]12C)C(=O)O (stereo partly shown) [Compound 1a, 3ξ-Hydroxytirucalla-7,24Z-dien-27-oic acid]",–,3.4,20.2 µg/mL,69.5 µg/mL,I,–,–
"C/C(=C/CCC(C)[C@@H]1CC[C@]2(C)C3=CCC4C(C)(C)[C@H](O)CC[C@]4(C)C3CC[C@@]12C)C(=O)O (stereo partly drawn) [Compound 3, 3α-Hydroxytirucalla-7,24Z-dien-27-oic acid]",2.4,4.3,16.3 µg/mL,69 µg/mL,–,–,"IC50 [8]: 57.8 µg/mL; CC50 CI95% NCTC (NCTC clone 929 cells; mouse, 48 h): 69.50 (64.01–75.45) μg/mL; IC50 [3]: 28.9 µg/mL"
"COC(=O)/C(C)=C\CCC(C)[C@@H]1CC[C@]2(C)C3=CCC4C(C)(C)[C@H](O)CC[C@]4(C)C3CC[C@@]12C (stereo partly drawn) [Compound 3a, Methyl 3α-hydroxytirucalla-7,24Z-dien-27-oate]",–,–,–,> 200 µg/mL,I,I,–
"C/C(=C/CCC(C)[C@@H]1CC[C@]2(C)C3=CCC4C(C)(C)C(=O)CC[C@]4(C)C3CC[C@@]12C)C(=O)O (stereo partly shown) [Compound 1, 3-Oxotirucalla-7,24Z-dien-27-oic acid]",>3,–,–,–,–,–,"IC50 against T. cruzi trypomastigotes ([6]; 24 h): lack of activity; T. cruzi (Trypomastigotes) Experimental [6]: I; NCTC Experimental (NCTC clone 929 cells; cytotoxicity class): I; CC50 at 48 h [2, 9]: > 200 µg/mL; IC50 [3]: 66.5 µg/mL"
